The values that follow come from patent US20110251379A1, “COMPOUNDS USEFUL FOR TREATING NEURODEGENERATIVE DISORDERS” (Satori Pharmaceuticals, Inc., priority 2010, published 2011).

Common to all, as to format: cell-based
The test system of one test is Aβ-42. The experiment in a line: MSD Human (6E10) Ab 3-PLEX elisa, conditioned media of 2B7 cells: Aβ-42. Conditions: Homo sapiens; for IC50: Aβ-42 (superscript c); for inhibition at 20 µM: Aβ-42, 20 μM. The procedure:
(§1) Assays were conducted to determine the ability of a Compound of Formula I to modulate […], and Aβ-38.
(§2) Plates with capture antibodies were blocked for 1-2 hours at room temperature with 150 μL of the manufactures blocking reagent.
(§3) Conditioned Media: • Cultured 2B7 cells in 96 well plate with 250 uL of media per well until confluent; • Prepared serial dilutions of compounds in DMSO at 100× the final desired concentration; • Washed wells with 2B7 cells 1× with 250 uL of media; • Diluted DMSO stocks 1:100 into media: • Added 250 μL of media containing compounds (1% DMSO) to wells with 2B7 cells for 5 hours at 37° C.
(§4) Elisa Sample Prep: • Diluted conditioned media: 1 part media with 1% DMSO and 1 part blocking buffer; • 150 μL of the 250 μL of conditioned media were used.
(§5) […] CURVE SAMPLE PREP: Prepared per manufacturer's protocol (see above) • Seven point standard curve samples were prepared that contained Aβ-42, Aβ-40, and Aβ-38. The highest concentration of Aβ-42 and Aβ-3-38 was 3,000 pg/mL and the highest concentration of Aβ-40 was 10,000 pg/mL. Subsequent serial dilutions were 1:3 and the final composition of each sample was 1 part blocking buffer and 1 part cell medium containing 1% DMSO.
(§6) Overnight Sample Incubation: • Blocked plates are washed 5× with MSD wash buffer with a plate washer • 25 uL of detection antibody and blocker G reagent in MSD blocking solution is added • 25 uL of samples (1 part conditioned media containing 1% DMSO and 1 part MSD blocking buffer) are then added. • plates are incubated overnight at 4 degrees C. or 2 hours at room temp
(§7) Final Wash and Readout: • Wash wells 5× with MSD wash buffer • Added 150 μL 2×MSD read buffer • Read with MSD imager.
(§8) A-Beta peptide levels for each peptide are calculated from the standard curve using the MSD software provided with the MSD 2400 Imager. Percent vehicle values for each compound dosage were then calculated and fit to a 4 parameter curve generating IC50 values.

A further test concerns Aβ-38. The experiment in a line: MSD Human (6E10) Ab 3-PLEX elisa, conditioned media of 2B7 cells: Aβ-38. To be noted: Homo sapiens, Aβ-38 (superscript a). As for the experimental part: as §1, §2, §3, §4, §5, §6, §7, §8
For a further test, the system named is Aβ-40. The experiment in a line: MSD Human (6E10) Ab 3-PLEX elisa, conditioned media of 2B7 cells: Aβ-40. To be noted: Homo sapiens; for IC50: Aβ-40 (superscript b); for inhibition at 20 µM: Aβ-40, 20 μM. The procedure:
as §1, §2, §3, §4, §5, §6, §7, §8

Where two headings read alike, the source gives them in different places. Where only a bound is given, the exact number is not on record here.

Regarding `C[C@@H]1CC(COC(=O)C(C)(C)C)OC2[C@H]1[C@@]1(C)CC[C@@]34C[C@@]35CC[C@H](O[C@H]3CN(C6COC6)CCO3)C(C)(C)[C@@H]5CCC4[C@]1(C)[C@H]2O` (stereo partly drawn), the IC50 is > 10000 nM with Aβ-42 (read-out: 50% reduction value), 1000 to 10000 nM in the test with Aβ-38 (read-out: 50% reduction value) and > 10000 nM in the test on Aβ-40 (read-out: 50% reduction value).

Turning to `C[C@@H]1CC(COC(=O)C2CC2)OC2[C@H]1[C@@]1(C)CC[C@@]34C[C@@]35CC[C@H](O[C@H]3CN(C6COC6)CCO3)C(C)(C)[C@@H]5CCC4[C@]1(C)[C@H]2O` (stereo partly drawn), the inhibition at 20 µM with Aβ-42 is < 25%. Also, the results for the IC50 with Aβ-38 (read-out: 50% reduction value) and in the test with Aβ-40 (read-out: 50% reduction value) were 1000 to 10000 nM and > 10000 nM, respectively.

Regarding `CC(C)CC(=O)OCC1C[C@@H](C)[C@H]2C(O1)[C@H](O)[C@@]1(C)C3CC[C@H]4C(C)(C)[C@@H](O[C@H]5CN(C6COC6)CCO5)CC[C@@]45C[C@@]35CC[C@]21C` (stereo partly drawn), the inhibition at 20 µM with Aβ-42 and with Aβ-40 was 25 to 75% each time. Moreover, the IC50 in the test with Aβ-38 (read-out: 50% reduction value) was in the range of 1000 to 10000 nM.

For the molecule `CC(C)[C@@H](OC(N)=O)C1C[C@@H](C)[C@H]2C(O1)[C@H](O)[C@@]1(C)[C@@H]3CC[C@H]4C(C)(C)C(O[C@H]5CNCCO5)CC[C@@]45C[C@@]35CC[C@]21C` (stereo partly drawn), the IC50 in the test with Aβ-42 (read-out: 50% reduction value) was < 1000 nM; in the test on Aβ-42 (read-out: IC50 range), < 1000 nM; in the test on Aβ-38 (read-out: 50% reduction value), < 1000 nM; with Aβ-40 (read-out: 50% reduction value), 1000 to 10000 nM; with Aβ-40 (read-out: IC50 range), 1000 to 10000 nM.

In the case of `CCO[C@H](C(C)C)C1C[C@@H](C)[C@H]2C(O1)[C@H](O)[C@@]1(C)[C@@H]3CC[C@H]4C(C)(C)C(O[C@H]5CNCCO5)CC[C@@]45C[C@@]35CC[C@]21C` (stereo partly drawn), the IC50 in the test on Aβ-42 (read-out: 50% reduction value), with Aβ-42 (read-out: IC50 range), with Aβ-38 (read-out: 50% reduction value), in the test with Aβ-40 (read-out: 50% reduction value) and with Aβ-40 (read-out: IC50 range) was 1000 to 10000 nM in each case.

Consider `CCO[C@H](C(C)C)C1C[C@@H](C)[C@H]2C(O1)[C@H](O)[C@@]1(C)[C@@H]3CC[C@H]4C(C)(C)C(O)CC[C@@]45C[C@@]35CC[C@]21C` (stereo partly drawn), for which the IC50 in the test with Aβ-42 (read-out: 50% reduction value), with Aβ-38 (read-out: 50% reduction value) and with Aβ-40 (read-out: 50% reduction value) was 1000 to 10000 nM throughout.

Turning to `CC(C)[C@@H](OC(=O)C1CCC1)C1C[C@@H](C)[C@H]2C(O1)[C@H](O)[C@@]1(C)[C@@H]3CC[C@H]4C(C)(C)C(O)CC[C@@]45C[C@@]35CC[C@]21C` (stereo partly drawn), the IC50 in the test with Aβ-42 (read-out: 50% reduction value) is < 1000 nM; in the test on Aβ-38 (read-out: 50% reduction value) it was < 1000 nM; with Aβ-38 (read-out: IC50 range), 1000 to 10000 nM; in the test on Aβ-40 (read-out: 50% reduction value), 1000 to 10000 nM.

With `CC(C)CC(=O)O[C@@H](C1C[C@@H](C)[C@H]2C(O1)[C@H](O)[C@@]1(C)[C@@H]3CC[C@H]4C(C)(C)C(O)CC[C@@]45C[C@@]35CC[C@]21C)C(C)(C)O` (stereo partly drawn), the IC50 was < 1000 nM with Aβ-42 (read-out: 50% reduction value), < 1000 nM in the test with Aβ-38 (read-out: 50% reduction value), < 1000 nM with Aβ-38 (read-out: IC50 range) and 1000 to 10000 nM with Aβ-40 (read-out: 50% reduction value).

On to `CC(=O)OC[C@@]1(C)C[C@@H](C)[C@H]2C(O1)[C@H](O)[C@@]1(C)C3CC[C@H]4C(C)(C)C(O)CC[C@@]45C[C@@]35CC[C@]21C` (stereo partly drawn), for which the values for the IC50 with Aβ-42 (read-out: 50% reduction value), with Aβ-38 (read-out: 50% reduction value) and with Aβ-40 (read-out: 50% reduction value) were > 10000 nM, 1000 to 10000 nM and 1000 to 10000 nM, respectively.

In the case of `CC(=O)O[C@@H](C1C[C@@H](C)C2C(O1)[C@H](O)[C@@]1(C)[C@@H]3CC[C@H]4C(C)(C)C(O)CC[C@@]45C[C@@]35CC[C@]21C)C(C)(C)C` (stereo partly drawn), the results for the IC50 with Aβ-42 (read-out: 50% reduction value) and in the test with Aβ-38 (read-out: 50% reduction value) were < 1000 nM and 1000 to 10000 nM, respectively. Further, the inhibition at 20 µM in the test with Aβ-40 is 25 to 75%.

For the molecule `CC(C)[C@@H](OC(=O)N1CCC1)C1C[C@@H](C)[C@H]2C(O1)[C@H](O)[C@@]1(C)C3CC[C@H]4C(C)(C)C(OC(=O)N5CC(C(=O)O)C5)CC[C@@]45C[C@@]35CC[C@]21C` (stereo partly drawn), the values for the IC50 in the test on Aβ-42 (read-out: 50% reduction value), with Aβ-38 (read-out: 50% reduction value) and in the test on Aβ-40 (read-out: 50% reduction value) were < 1000 nM, < 1000 nM and 1000 to 10000 nM, respectively.

Turning to `CC(C)[C@@H](OC(=O)N1CCC1)C1C[C@@H](C)[C@H]2C(O1)[C@H](O)[C@@]1(C)C3CC[C@H]4C(C)(C)C(OC(=O)NC5CNC5)CC[C@@]45C[C@@]35CC[C@]21C` (stereo partly drawn), the IC50 is < 1000 nM in the test with Aβ-42 (read-out: 50% reduction value); < 1000 nM in the test with Aβ-42 (read-out: IC50 range); < 1000 nM in the test with Aβ-38 (read-out: 50% reduction value); < 1000 nM with Aβ-38 (read-out: IC50 range); 1000 to 10000 nM with Aβ-40 (read-out: 50% reduction value); 1000 to 10000 nM in the test with Aβ-40 (read-out: IC50 range).
